# Legend:
# [1] = test system: stationary phase B. burgdorferi; experiment: Subculture test of drug-treated stationary phase B. burgdorferi; format: cell-based, Borrelia burgdorferi; settings: 10 μg/mL
# Description: Seven-day-old B. burgdorferi culture (1×10^7 spirochetes/mL) (500 μL) was treated with drugs or drug combinations in Eppendorf tubes. After incubation at 33° C. for 7 days without shaking, the cells were collected by centrifugation and rinsed with 1 mL fresh BSK-H medium followed by resuspension in 500 μL fresh BSK-H medium without antibiotics. Then 50 μL of cell suspension was transferred to 1 mL fresh BSK-H medium for subculture at 33° C. for 2 weeks. Cell proliferation was assessed using SYBR Green I/PI assay and bacterial counting chamber (Hausser Scientific Partnership) by microscopy as described above.
# [2] = test system: stationary phase B. burgdorferi persisters (strain B31); experiment: NCI compound library screen, SYBR Green I/PI assay (plate reader)
# [3] = test system: log phase and stationary phase B. burgdorferi culture; experiment: Antibiotic exposure assay, SYBR Green I/PI (drugs alone and combinations)
# In short: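 Stationary-phase or round-body B. burgdorferi exposed 7 days at 33 °C to drugs alone or combined at 10 μg/mL each (single-compound screen: 50 μM final). Viability by SYBR Green I/PI, ex 485, em 535/635 nm; percent live from regression of green/red ratio, corrected by direct microscopy counting.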
# [4] = test system: round body form of B. burgdorferi; experiment: SYBR Green I/PI assay on amoxicillin-induced round body form
# [5] = test system: stationary phase B. burgdorferi persisters (strain B31); experiment: SYBR Green I/PI viability assay (plate reader), FDA-approved drug library screen
# [6] = test system: stationary phase B. burgdorferi persisters (strain B31); experiment: epifluorescence microscope counting after SYBR Green I/PI staining, FDA drug screen; settings: Borreliella burgdorferi, 168 h, read-out: Residual viable cells (epifluorescence microscope counting)
# [7] = test system: B. burgdorferi (growing, strain B31); experiment: MIC determination, standard microdilution method; format: cell-based, Borrelia burgdorferi; settings: Borreliella burgdorferi; growing B. burgdorferi; read-out: MIC
# [8] = test system: round body form of B. burgdorferi; experiment: Subculture test of drug-treated round body form
# Description: For induction of round body form of B. burgdorferi, B. burgdorferi spirochetes (1×10^5 spirochetes/mL) were cultured in BKS-H medium for 6 days without shaking. After the 6-day incubation, amoxicillin at a final concentration of 50 μg/mL was added to the culture for round body form induction. After 72 h induction at 33° C., the round body forms of B. burgdorferi were examined by the microscopy. The round body cells (100 μL) were transferred to 96-well tissue culture microplates for evaluation of the effects of antibiotic treatment.
# [9] = test system: stationary phase B. burgdorferi persisters (strain B31); experiment: NCI compound library rescreen, epifluorescence microscope counting; settings: Borreliella burgdorferi, 168 h
# [10] = 7 days treatment, then subculture
# [11] = 10 μg/mL drugs or combinations, 7 days
# [12] = 50 μM, 7 days, stationary phase
# [13] = 10 μg/mL, 7 days treatment, then subculture
compound,measurement,setting,value
C[C@H]1c2cccc(O)c2C(=O)C2=C(O)[C@]3(O)C(=O)C(C(N)=O)=C(O)[C@@H](N(C)C)[C@@H]3[C@@H](O)[C@@H]21 [Doxycycline],G/R ratio immediately after treatment,[1]; 7 days,6.71
same,G/R ratio after 7 day subculture,[1]; [10],6.23
same,G/R ratio after 15 day subculture,[1]; [10],6.89
same,Spirochetes after 7 day subculture (microscope counting),[1]; [10],9 × 10^5
same,Spirochetes after 15 day subculture (microscope counting),[1]; [10],~5×10^6
same,Spirochetes after 15 day subculture (microscope counting),"[1]; 7 days treatment, then subculture, listed as Dox",4 × 10^6
same,viability at 10 µg/mL,"[1]; Borreliella burgdorferi, 168 h, seven-day-old culture, 7 days, read-out: Residual viable cells (epifluorescence microscope counting)",67%
same,Residual viable cells (SYBR Green I/PI assay),"[2]; 50 μM, seven day old stationary phase culture, 7 days",68%
same,viability at 20 µM,"[2]; Borreliella burgdorferi, 168 h, read-out: Residual viable cells (%) 20 μM (SYBR Green I/PI assay), 20 μM, seven day old stationary phase, 7 days",76%
same,viability at 50 µM,"[2]; Borreliella burgdorferi, 168 h, read-out: Residual viable cells (SYBR Green I/PI assay), 50 μM, seven day old stationary phase culture, 7 days",75%
same,"Live cell %, ten day old stationary phase culture (in brackets)",[3]; [11],72%
same,viability at 10 µg/mL,"[3]; Borreliella burgdorferi, 168 h, read-out: Live Cell % (residual viable B. burgdorferi), ten-day-old stationary phase culture enriched with micro-colonies, 10 μg/mL each drug, 7 days",72%
same,"Live cell %, round body form",[4]; [11],49%
same,viability at 50 µM,"[4]; Borreliella burgdorferi, 168 h, read-out: Residual viable cells (SYBR Green I/PI assay)",42%
same,"Ratios of green/red fluorescence, Primary screening","[4]; round body form, 50 μM, 7 days",6.34
same,"Ratios of green/red fluorescence, Rescreening (first column)","[4]; round body form, 50 μM, 7 days",6.39
same,"Ratios of green/red fluorescence, Rescreening (second column)","[4]; round body form, 50 μM, 7 days",6.67
same,"Ratio of Green/Red fluorescence, Primary screening",[5]; [12],7.62
same,"Ratio of Green/Red fluorescence, Rescreening (first column)",[5]; [12],7.35
same,"Ratio of Green/Red fluorescence, Rescreening (second column)",[5]; [12],7.58
same,viability at 50 µM,"[5]; Borreliella burgdorferi, 168 h, read-out: Residual viable cells (regression equation, SYBR Green I/PI assay)",67%
same,viability at 50 µM,[6],75%
same,MIC,[7],≤ 0.25 µg/mL
same,Spirochetes number After 10 day subculture,[8]; [13],1 × 10^6
same,Spirochetes number After 20 day subculture,[8]; [13],about 5×10^6
same,Spirochetes number After 20 day subculture,"[8]; 10 μg/mL, 7 days treatment, then subculture, listed as Dox",5 × 10^6
same,viability at 10 µg/mL,"[8]; Borreliella burgdorferi, 168 h, read-out: Residual viable cells",44%
same,viability at 50 µM,[9]; read-out: Activity against persisters (residual viable cell percentage),77%
same,viability at 20 µM,[9]; read-out: Residual viable cells (%) 20 μM (epifluorescence microscope counting),77%
same,viability at 50 µM,[9]; read-out: Residual viable cells (%) 50 μM (epifluorescence microscope counting),77%
same,viability at 50 µM,[9]; read-out: Residual viable cells (epifluorescence microscope counting),77%

# Source: patent publication US20170058314A1, “NOVEL METHODOLOGY FOR IDENTIFYING ANTI-PERSISTER ACTIVITY AND ANTIMICROBIAL SUSCEPTIBILITY FOR BORRELIA BURGDORFERI AND OTHER BACTERIA” (priority 2014, published 2017)
